Experimental data as given in patent publication US7745646B2, “Bicyclic heteroaryl inhibitors of PDE4” (Kalypsys, Inc., priority 2006, dated 2010).

Biological target: T1, PDE4B (Homo sapiens, UniProt Q07343)
T1 construct: hex-histidine (His6) (N); made in house
Assay: Novel coupled PDE/AK bioluminescent assay, PDE4B inhibition
Type: biochemical
Conditions: PDE4B catalytic domain

T1 sequence (Q07343 330-659 limits assumed, species assumed): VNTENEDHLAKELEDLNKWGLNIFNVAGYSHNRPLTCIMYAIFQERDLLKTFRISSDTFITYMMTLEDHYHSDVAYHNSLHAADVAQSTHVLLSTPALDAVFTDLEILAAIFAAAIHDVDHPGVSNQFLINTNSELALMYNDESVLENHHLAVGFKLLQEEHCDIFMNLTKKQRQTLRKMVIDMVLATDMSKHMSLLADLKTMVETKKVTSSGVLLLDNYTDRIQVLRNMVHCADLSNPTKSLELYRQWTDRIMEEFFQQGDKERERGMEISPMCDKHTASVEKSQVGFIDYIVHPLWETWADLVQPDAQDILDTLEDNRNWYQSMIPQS

| Structure (SMILES) | IC50 |
| --- | --- |
| COc1ccc2c(Nc3c(Cl)cncc3Cl)cc(=O)oc2c1OC1CCCC1 [Example 3, 8-(Cyclopentyloxy)-4-(3,5-dichloropyridin-4-ylamino)-7-methoxy-2H-chromen-2-one] | < 1000 nM |
| COc1ccc2c(Nc3c(Cl)cncc3Cl)cc(=O)oc2c1OCC1CC1 [Example 5, 8-(Cyclopropylmethoxy)-4-(3,5-dichloropyridin-4-ylamino)-7-methoxy-2H-chromen-2-one] | < 1000 nM |
| COc1ccc2c(Nc3c(Cl)cncc3Cl)cc(=O)oc2c1OCCCCO[C@@H]1O[C@H](CO)[C@@H](O)[C@H](O)[C@H]1O [Example 87, 4-(3,5-Dichloropyridin-4-ylamino)-7-methoxy-8-(4-((2R,3R,4S,5S,6R)-3,4,5-trihydroxy-6-(hydroxymethyl)tetrahydro-2H-pyran-2-yloxy)butoxy)-2H-chromen-2-one] | < 1000 nM |
| CCCCN(C)CCCCCOc1c(OC)ccc2c(Nc3c(Cl)cncc3Cl)cc(=O)oc12 [Example 90, 8-(5-(Butyl(methyl)amino)pentyloxy)-4-(3,5-dichloropyridin-4-ylamino)-7-methoxy-2H-chromen-2-one] | < 1000 nM |
| CCCCCN(C)CCCCCOc1c(OC)ccc2c(Nc3c(Cl)cncc3Cl)cc(=O)oc12 [Example 91, 4-(3,5-Dichloropyridin-4-ylamino)-7-methoxy-8-(5-(methyl(pentyl)amino)pentyloxy)-2H-chromen-2-one] | < 1000 nM |
| COc1ccc2c(Nc3c(Cl)cncc3Cl)cc(=O)oc2c1OCCCCCN(C)CCCN(C)C [Example 92, 4-(3,5-Dichloropyridin-4-ylamino)-8-(5-((3-(dimethylamino)propyl)(methyl)amino)pentyloxy)-7-methoxy-2H-chromen-2-one] | < 1000 nM |
| CCOC(=O)CNC(=O)CCCCCOc1c(OC)ccc2c(Nc3c(Cl)cncc3Cl)cc(=O)oc12 [Example 94, Ethyl 2-(6-(4-(3,5-dichloropyridin-4-ylamino)-7-methoxy-2-oxo-2H-chromen-8-yloxy)hexanamido)acetate] | < 1000 nM |
| COc1ccc2c(Nc3c(Cl)cncc3Cl)cc(=O)oc2c1OCCCCCC(=O)N[C@@H](C)C(=O)O [Example 97, (S)-2-(6-(4-(3,5-Dichloropyridin-4-ylamino)-7-methoxy-2-oxo-2H-chromen-8-yloxy)hexanamido)propanoic acid] | < 1000 nM |
| COc1ccc2c(Nc3c(Cl)cncc3Cl)cc(=O)oc2c1OCCCCCn1nccn1 [Example 99, 8-(5-(2H-1,2,3-Triazol-2-yl)pentyloxy)-4-(3,5-dichloropyridin-4-ylamino)-7-methoxy-2H-chromen-2-one] | < 1000 nM |
| COc1ccc2c(Nc3c(Cl)cncc3Cl)cc(=O)oc2c1OCCCCCn1ncnn1 [Example 101, 8-(5-(2H-Tetrazol-2-yl)pentyloxy)-4-(3,5-dichloropyridin-4-ylamino)-7-methoxy-2H-chromen-2-one] | < 1000 nM |

Results, then the molecule that gave them:

| IC50 | Structure (SMILES) |
| --- | --- |
| < 1000 nM | COc1ccc2c(Nc3c(Cl)cncc3Cl)cc(=O)oc2c1OCC(=O)NO [Example 88, 2-(4-(3,5-Dichloropyridin-4-ylamino)-7-methoxy-2-oxo-2H-chromen-8-yloxy)-N-hydroxyacetamide] |
| < 1000 nM | CCCN(C)CCCCCOc1c(OC)ccc2c(Nc3c(Cl)cncc3Cl)cc(=O)oc12 [Example 89, 4-(3,5-Dichloropyridin-4-ylamino)-7-methoxy-8-(5-(methyl(propyl)amino)pentyloxy)-2H-chromen-2-one] |
| < 1000 nM | COc1ccc2c(Nc3c(Cl)cncc3Cl)cc(=O)oc2c1OCCCCCN(C)CCN(C)C [Example 93, 4-(3,5-Dichloropyridin-4-ylamino)-8-(5-((2-(dimethylamino)ethyl)(methyl)amino)pentyloxy)-7-methoxy-2H-chromen-2-one] |
| < 1000 nM | COC(=O)[C@H](C)NC(=O)CCCCCOc1c(OC)ccc2c(Nc3c(Cl)cncc3Cl)cc(=O)oc12 [Example 95, (S)-Methyl 2-(6-(4-(3,5-dichloropyridin-4-ylamino)-7-methoxy-2-oxo-2H-chromen-8-yloxy)hexanamido)propanoate] |
| < 1000 nM | COc1ccc2c(Nc3c(Cl)cncc3Cl)cc(=O)oc2c1OCCCCCC(=O)NCC(=O)O [Example 96, 2-(6-(4-(3,5-Dichloropyridin-4-ylamino)-7-methoxy-2-oxo-2H-chromen-8-yloxy)hexanamido)acetic acid] |
| < 1000 nM | COc1ccc2c(Nc3c(Cl)cncc3Cl)cc(=O)oc2c1OCCCCCn1ccnn1 [Example 98, 8-(5-(1H-1,2,3-Triazol-1-yl)pentyloxy)-4-(3,5-dichloropyridin-4-ylamino)-7-methoxy-2H-chromen-2-one] |
| < 1000 nM | CNCCCCCOc1c(OC)ccc2c(Nc3c(Cl)cncc3Cl)cc(=O)oc12 [Example 100, 4-(3,5-Dichloropyridin-4-ylamino)-7-methoxy-8-(5-(methylamino)pentyloxy)-2H-chromen-2-one] |
| < 1000 nM | COc1ccc2c(Nc3c(Cl)cncc3Cl)cc(=O)oc2c1OCCCCCn1cnnn1 [Example 102, 8-(5-(1H-Tetrazol-1-yl)pentyloxy)-4-(3,5-dichloropyridin-4-ylamino)-7-methoxy-2H-chromen-2-one] |
| < 1000 nM | COc1ccc2c(Nc3c(Cl)cncc3Cl)cc(=O)oc2c1OCCCCCn1cncn1 [Example 103, 8-(5-(1H-1,2,4-Triazol-1-yl)pentyloxy)-4-(3,5-dichloropyridin-4-ylamino)-7-methoxy-2H-chromen-2-one] |
| < 1000 nM | COc1ccc2c(Nc3c(Cl)cncc3Cl)cc(=O)oc2c1OCCCCCOP(=O)(O)O [Example 104, 5-(4-(3,5-Dichloropyridin-4-ylamino)-7-methoxy-2-oxo-2H-chromen-8-yloxy)pentyl dihydrogen phosphate] |
| < 1000 nM | CNP(=O)(NC)OCCCCCOc1c(OC)ccc2c(Nc3c(Cl)cncc3Cl)cc(=O)oc12 [Example 105] |

Tested on: Lacrimal Gland Inflammation-Induced Dry Eye in Rabbits
Assay: Lacrimal Gland Inflammation-Induced Dry Eye in Rabbits
Type: in vivo
Conditions: 1 percent, topical ocular BID, rabbit dry eye
Excerpt: A more detailed description of the assay used herein may be found in Naglehout, T J et al. 2005, “Preservation of Tear Film Integrity and Inhibition of Corneal Injury by Dexamethasone in a Rabbit Model of Lacrimal Gland Inflammation-Induced Dry Eye,” J. Ocular Pharm. Ther., 21:2. 139-148, the disclosure of which is hereby incorporated by reference as if written herein in its entirety.
Rabbits (n=4/group) were randomized into treatment groups and dosed topically BID with maxidex vehicle or test drug beginning one day prior to initiation of dry eye. Each rabbit received bilateral lacrimal gland injections of saline or ConA (300 μg/30 μl) and topical ocular dosing was continued BID throughout the study.
Desiccation was initiated 1-2 hours following lacrimal gland injection by placing conscious rabbits in the environmental chamber (10-15% humidity/72° F.). […] Absorbance of the extracted dye was determined at 660 nm.
TBUT was quantified in a separate group of treated animals. TBUT was determined by instilling 5 μL sodium fluorescein into the cul de sac and manually blinking the lids to distribute the fluorescein within the tear film. Under slit lamp observation, the eye was held open and the time whereby one or more black spots or streaks appeared in the precorneal tear film was recorded. […]

| Structure (SMILES) | Activity at Percent Concentration Tested |
| --- | --- |
| COc1ccc2c(Nc3c(Cl)cncc3Cl)cc(=O)oc2c1OC1CCCC1 [Example 3, 8-(Cyclopentyloxy)-4-(3,5-dichloropyridin-4-ylamino)-7-methoxy-2H-chromen-2-one] | Inactive |
| COc1ccc2c(Nc3c(Cl)cncc3Cl)cc(=O)oc2c1OCC1CC1 [Example 5, 8-(Cyclopropylmethoxy)-4-(3,5-dichloropyridin-4-ylamino)-7-methoxy-2H-chromen-2-one] | Inactive |
